In patent US12202808B2, “Substituted antivirals for treating coronavirus infection” (Erasmus University Medical Center Rotterdam, priority 2021, dated 2025):
Where two headings read alike, the source gives them in different places.

Key:
[1] = test system: Bronchiolar organoid-derived cultures; format: cell-based, human
[2] = test system: SARS-CoV-2; format: cell-based; conditions: bronchioalveolar organoid-derived cultures, 10 μM, MOI 0.1, 2-72 h p.i.
[3] = test system: SARS-CoV-2; format: cell-based; conditions: bronchiolar organoid-derived cultures, MOI 0.1, 2-72 h p.i., most pronounced at 72 h p.i.

Structure (SMILES): CO[C@H]1CN(C)C(=O)c2cc(NC(=O)NC(C)C)ccc2OC[C@H](C)N(Cc2ccc(-c3ccccn3)cc2)C[C@@H]1C [Bafcilin1]
- GSEA (Enrichr, COVID-19 Related Gene Sets) of treatment affected genes ([1]; 1 μM, 10 μM and common between both treatments): significant enrichment of genes upregulated upon SARS-CoV-2 infection
- number of genes affected (differentially expressed) as compared to DMSO ([1]; 1 μM, 24 h treatment): 653 genes
- Enrichr analysis of genes downregulated by treatment ([1]; 10 μM): enriched for genes upregulated upon SARS-CoV-2 or SARS-CoV-1 infection
- Enrichr analysis of genes upregulated by treatment ([1]; 10 μM): enriched for genes downregulated upon SARS-CoV-2 or MERS-CoV infection
- number of genes differentially expressed in the same direction in both concentration groups ([1]; common to 1 μM and 10 μM, 24 h treatment): 437 genes
- inhibition of SARS-CoV-2 replication [2]: inhibited SARS-CoV-2 replication
- inhibition of SARS-CoV-2 replication as compared to the DMSO control ([3]; 1 μM): inhibited SARS-CoV-2 replication
- inhibition of SARS-CoV-2 replication as compared to the DMSO control ([3]; 10 μM): inhibited SARS-CoV-2 replication
